Data as given in paper PMC10824666 (Nature Cancer, 2023).
Read-outs that look alike come from different tables or passages of the source.

Tests used:
Assay in all cases: biochemical
Set-up in all cases: Eurofins DiscoverX kinase panel, competitive binding assay at 1 uM, percent of DMSO control
Settings in all cases: competitive binding, percent of DMSO control
[1] = biological target: DAPK1 (Homo sapiens, UniProt P53355)
Procedure, shortened: (§1)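 Single-point profiling at 1 µM compound in a competition-binding format against 96 kinases, read out as POC relative to control; n = 1.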

[2] = biological target: T1, DMPK (Homo sapiens, UniProt Q09013)
T1 sequence (Q09013 1-629): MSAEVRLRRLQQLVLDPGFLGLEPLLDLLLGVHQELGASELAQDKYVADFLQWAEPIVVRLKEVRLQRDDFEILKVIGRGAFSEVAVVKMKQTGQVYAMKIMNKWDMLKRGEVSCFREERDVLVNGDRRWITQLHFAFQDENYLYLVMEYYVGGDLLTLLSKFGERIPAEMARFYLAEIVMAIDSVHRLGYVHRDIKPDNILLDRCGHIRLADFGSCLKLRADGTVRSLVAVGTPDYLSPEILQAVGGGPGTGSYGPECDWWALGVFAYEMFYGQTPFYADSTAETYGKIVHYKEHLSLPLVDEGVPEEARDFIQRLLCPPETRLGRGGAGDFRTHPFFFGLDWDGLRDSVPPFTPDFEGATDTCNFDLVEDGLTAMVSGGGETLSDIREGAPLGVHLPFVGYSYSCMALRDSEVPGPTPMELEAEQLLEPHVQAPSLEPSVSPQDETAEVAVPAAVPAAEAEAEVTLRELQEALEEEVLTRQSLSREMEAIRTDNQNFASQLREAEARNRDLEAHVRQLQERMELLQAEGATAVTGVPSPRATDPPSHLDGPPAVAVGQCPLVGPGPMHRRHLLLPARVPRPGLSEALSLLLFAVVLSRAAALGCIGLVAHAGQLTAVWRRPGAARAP
Procedure, shortened: as §1

[3] = biological target: T2, CAMK4 (Homo sapiens, UniProt Q16566)
T2 sequence (Q16566 1-473): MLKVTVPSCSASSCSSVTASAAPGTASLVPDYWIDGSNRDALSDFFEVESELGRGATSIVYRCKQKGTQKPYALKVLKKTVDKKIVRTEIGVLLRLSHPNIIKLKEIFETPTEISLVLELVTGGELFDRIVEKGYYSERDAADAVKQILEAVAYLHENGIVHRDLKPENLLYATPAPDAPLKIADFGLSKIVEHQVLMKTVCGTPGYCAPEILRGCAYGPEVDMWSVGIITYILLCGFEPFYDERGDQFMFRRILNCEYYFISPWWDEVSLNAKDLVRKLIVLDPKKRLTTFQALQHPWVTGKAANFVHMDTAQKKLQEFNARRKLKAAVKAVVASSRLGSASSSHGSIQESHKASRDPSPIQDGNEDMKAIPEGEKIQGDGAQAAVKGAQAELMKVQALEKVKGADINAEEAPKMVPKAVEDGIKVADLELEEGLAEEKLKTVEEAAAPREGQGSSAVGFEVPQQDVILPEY
Procedure, shortened: as §1

[4] = biological target: T3, MSK1 (Homo sapiens, UniProt O75582)
T3 construct: gene RPS6KA5
T3 sequence (O75582 whole entry): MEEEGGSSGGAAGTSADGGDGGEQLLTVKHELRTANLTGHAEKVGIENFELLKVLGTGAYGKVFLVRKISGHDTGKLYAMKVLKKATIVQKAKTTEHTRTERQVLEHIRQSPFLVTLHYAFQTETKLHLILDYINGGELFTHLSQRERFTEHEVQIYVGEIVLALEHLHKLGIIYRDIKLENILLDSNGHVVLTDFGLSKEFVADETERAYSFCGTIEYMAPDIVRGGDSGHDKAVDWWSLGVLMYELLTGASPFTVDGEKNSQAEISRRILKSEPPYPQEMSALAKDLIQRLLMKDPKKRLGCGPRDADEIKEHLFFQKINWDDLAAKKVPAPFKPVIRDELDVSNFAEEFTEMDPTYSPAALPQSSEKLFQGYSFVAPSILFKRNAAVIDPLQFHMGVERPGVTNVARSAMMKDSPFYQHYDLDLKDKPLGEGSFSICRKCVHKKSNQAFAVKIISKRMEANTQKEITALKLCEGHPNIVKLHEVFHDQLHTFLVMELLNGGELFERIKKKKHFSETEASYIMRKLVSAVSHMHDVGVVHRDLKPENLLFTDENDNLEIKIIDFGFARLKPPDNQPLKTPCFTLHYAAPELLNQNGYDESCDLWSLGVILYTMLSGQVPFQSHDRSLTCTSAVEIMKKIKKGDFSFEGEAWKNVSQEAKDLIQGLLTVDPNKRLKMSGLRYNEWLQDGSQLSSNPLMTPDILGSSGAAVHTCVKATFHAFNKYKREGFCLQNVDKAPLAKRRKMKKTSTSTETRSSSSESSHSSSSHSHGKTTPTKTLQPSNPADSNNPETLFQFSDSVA
Procedure, shortened: as §1

[5] = read-out: Kinome Profiling performed by Eurofins DiscoverX / AM-1882, 1.0 µM / POC
[6] = read-out: Kinome Profiling performed by Eurofins DiscoverX / AM-0277, 1.0 µM / POC
[7] = read-out: Kinome Profiling performed by Eurofins DiscoverX / AM-5308, 1.0 µM / POC

DAPK1, sequence (P53355 whole entry): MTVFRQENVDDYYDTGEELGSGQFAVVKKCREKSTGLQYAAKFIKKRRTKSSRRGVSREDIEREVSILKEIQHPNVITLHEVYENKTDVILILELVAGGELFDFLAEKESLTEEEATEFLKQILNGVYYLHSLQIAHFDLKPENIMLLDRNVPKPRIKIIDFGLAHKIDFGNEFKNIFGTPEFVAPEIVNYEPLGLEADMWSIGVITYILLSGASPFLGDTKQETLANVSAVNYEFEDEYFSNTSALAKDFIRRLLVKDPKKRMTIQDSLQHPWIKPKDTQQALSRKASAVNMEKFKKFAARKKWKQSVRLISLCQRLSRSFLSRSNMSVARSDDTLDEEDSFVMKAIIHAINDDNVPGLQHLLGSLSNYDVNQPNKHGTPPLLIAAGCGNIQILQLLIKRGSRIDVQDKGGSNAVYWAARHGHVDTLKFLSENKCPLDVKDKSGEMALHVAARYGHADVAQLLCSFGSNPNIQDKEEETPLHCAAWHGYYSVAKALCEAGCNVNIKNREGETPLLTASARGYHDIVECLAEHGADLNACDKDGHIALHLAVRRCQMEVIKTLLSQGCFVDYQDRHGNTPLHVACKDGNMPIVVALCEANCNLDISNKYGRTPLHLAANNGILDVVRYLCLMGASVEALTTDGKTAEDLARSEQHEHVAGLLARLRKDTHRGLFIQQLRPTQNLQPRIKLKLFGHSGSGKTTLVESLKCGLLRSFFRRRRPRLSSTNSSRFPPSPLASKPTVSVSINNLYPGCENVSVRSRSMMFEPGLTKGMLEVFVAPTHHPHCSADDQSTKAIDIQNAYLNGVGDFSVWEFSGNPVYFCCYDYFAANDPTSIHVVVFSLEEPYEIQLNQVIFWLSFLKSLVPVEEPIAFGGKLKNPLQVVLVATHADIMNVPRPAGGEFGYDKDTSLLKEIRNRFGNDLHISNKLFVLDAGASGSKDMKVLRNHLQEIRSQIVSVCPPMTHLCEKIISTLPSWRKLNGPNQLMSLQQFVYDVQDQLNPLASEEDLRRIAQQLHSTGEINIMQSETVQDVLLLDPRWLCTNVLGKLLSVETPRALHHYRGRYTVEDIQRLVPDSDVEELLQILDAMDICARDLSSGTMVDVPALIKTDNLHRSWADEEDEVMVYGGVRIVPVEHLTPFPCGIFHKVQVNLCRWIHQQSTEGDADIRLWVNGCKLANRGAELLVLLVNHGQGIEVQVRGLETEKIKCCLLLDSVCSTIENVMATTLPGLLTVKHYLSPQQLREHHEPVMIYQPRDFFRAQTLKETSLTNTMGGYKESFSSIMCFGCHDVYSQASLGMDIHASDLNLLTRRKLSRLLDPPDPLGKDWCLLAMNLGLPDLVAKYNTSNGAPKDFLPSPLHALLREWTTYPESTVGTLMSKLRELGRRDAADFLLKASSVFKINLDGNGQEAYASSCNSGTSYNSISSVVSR

Question: Which results are given for `CC(C)(C)NS(=O)(=O)c1cccc(NC(=O)c2ccc(S(=O)(=O)NC(C)(C)C)cc2N2CCC3(CC2)CC3)c1` [AM-1882]?
Answer: remaining activity at 1 µM [1, 5]: 87%; remaining activity at 1 µM [2, 5]: 99.5%; remaining activity at 1 µM [3, 5]: 99%; remaining activity at 1 µM [4, 5]: 100%

Question: How did the remaining activity at 1 µM [1, 6] turn out when `CC(C)(CO)Nc1ccc(C(=O)Nc2cccc(S(=O)(=O)C3CCCC3)c2)c(N2CCC3(CC2)CC3)n1` [AM-0277] was run?
Answer: The remaining activity at 1 µM was 100%.

Question: And the remaining activity at 1 µM [2, 6]?
Answer: The remaining activity at 1 µM was 100%.

Question: What about the remaining activity at 1 µM [3, 6] of the same compound?
Answer: The remaining activity at 1 µM was 81%.

Question: What about the remaining activity at 1 µM [4, 6] of the same compound?
Answer: The remaining activity at 1 µM was 94%.

Question: What does the source list for `C[C@@H]1CN(c2cccc(NC(=O)c3ccc(NS(=O)(=O)CCO)cc3N3CCC4(CC3)CC4)n2)CCO1` [AM-5308]?
Answer: remaining activity at 1 µM [1, 7]: 89.5%; remaining activity at 1 µM [2, 7]: 92%; remaining activity at 1 µM [3, 7]: 100%; remaining activity at 1 µM [4, 7]: 91.5%
